The target of series [1] is T1, human SARP-2 (Homo sapiens, UniProt Q8N474).
T1 construct: endogenous in cells; host or cells: hOB-03-C5 and hOB-03-CE6 human osteoblast cell lines treated with PGE2
T1 sequence (Q8N474 32-314): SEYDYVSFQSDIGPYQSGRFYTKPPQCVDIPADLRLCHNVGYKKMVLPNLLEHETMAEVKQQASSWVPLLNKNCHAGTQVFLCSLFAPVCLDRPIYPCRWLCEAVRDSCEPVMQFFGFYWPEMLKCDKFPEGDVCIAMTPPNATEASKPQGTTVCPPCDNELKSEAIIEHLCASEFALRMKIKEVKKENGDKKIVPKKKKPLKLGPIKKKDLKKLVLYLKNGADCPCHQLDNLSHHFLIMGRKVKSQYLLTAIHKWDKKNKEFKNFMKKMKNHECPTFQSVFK
The experiment in a line: Reversal of PGE2-accelerated hOB cell death, Coulter cell counter. The class given is cell-based. The note with it: co-treatment with PGE2, hOB-03-C5 and hOB-03-CE6 cells. Here is the method:
These experiments were performed in a similar manner to the ones depicted in FIG. 10. However, for these experiments, the cells were co-treated with either vehicle control (i.e., 0.1% ethanol) or PGE2 in the absence or presence of sense (control) or antisense initiation-site directed phosphorothioate oligonucleotides to human SARP-2. The results are presented as either the % relative to the day 0 control (i.e., ˜200,000 cells per well of a 6 well plate) or as the % relative to the vehicle treated control. The results of this experiment indicate that co-treatment of the hOB cells with the antisense oligonucleotide to SARP-2 reverses the ability of PGE2 to accelerate the rate of cell death, while co-treatment with the sense (control) oligonucleotide as no effect on this process.
These experiments were performed in a similar manner to the ones depicted in FIG. 10. However, for these experiments, the cells were co-treated with either vehicle control (i.e., 0.1% ethanol) or PGE2 in the absence or presence of sense (control) or antisense initiation-site directed phosphorothioate oligonucleotides to human SARP-2. The results are presented as either the % relative to the day 0 control (i.e., ˜200,000 cells per well of a 6 well plate) or as the % relative to the vehicle treated control. […]

Series [2] concerns hOB SFRP mRNA. The experiment in a line: hOB SFRP mRNA levels after treatment with various agents (method not given). The class given is cell-based, human. The note with it: for effect on hOB SFRP mRNA levels: hOB-03-C5 cells or hOB-03-CE6 cells; for effect on hOB SFRP message expression: various hOB cell lines.
Series [3] concerns hOB-01-C1-PS-09 cells. The series is described as follows: Alkaline phosphatase activity in hOB-01-C1-PS-09 cells. The class given is cell-based, human. From the text:
(§1) Unlike the parental hOB-01-C1 cell line, the hOB-01-C1-PS-09 cells proliferate 2- to 3-times faster at the permissive temperature with a doubling time of once every 2–3 days (FIG. 22A). However, like the parental cells, the hOB-01-C1-PS-09 cells stop dividing at the non-permissive temperature (FIG. 22A). […] Alkaline phosphatase and osteocalcin are two important markers of the osteocytic lineage.
In addition to vitamin D3 and PTH, the hOB-01-C1-PS-09 cells also respond to additional bone-active agents: for example, glucocorticoids and transforming growth factor (TGF)-β1. Treatment of the cells with the synthetic glucocorticoid, dexamethasone, up-regulates alkaline phosphatase activity approximately 2-fold at 34° C. (FIG. 25), and this effect is once again enhanced when the cells are incubated at 39° C.

For series [4], the system named is hOB-01-C1-PS-09 cells. The experiment in a line: Osteocalcin secretion from hOB-01-C1-PS-09 cells. The class given is cell-based, human.
Excerpt: as §1
However, the secosteroid up-regulates production of this bone-specific matrix protein 11-fold when the cells are incubated at 39° C. It should be noted that the basal levels of alkaline phosphatase expression and osteocalcin secretion by the hOB-01-C1-PS-09 cells are similar to the parental cell line. Thus, both morphologically and biochemically, the hOB-01-C1-PS-09 cells resemble the parental hOB-01-C1 cells and are therefore a reliable in vitro model to study human pre-osteocyte biology.

Series [5] relates to Wnt signaling. The series is described as follows: TCF-luciferase reporter gene assay of Wnt signaling. The class given is cell-based, human. To be noted: transfected cDNA, hOB-01-C1-PS-09 or hOB-02-C1-PS-02 cells. How it is done:
SARP-2 or human Frzb-1 expression plasmids downregulates Wnt signaling (when compared to the pcDNA3.1 empty vector control) in the hOB cells as measured by the TCF-luciferase reporter gene assay. This assay is an authentic measurement of Wnt signaling and β-catenin nuclear activity.
In order to determine if the up-regulation of SFRP-1/FRP-1/SARP-2 gene expression results in an antagonism of the Wnt signaling pathway, hOB-03-CE6 cells were treated with PGE2 and the resulting cells probed with β-catenin monoclonal antibody. Overexpression of Wnt proteins in cells up-regulates a signaling protein known as β-catenin (reviewed in Moon et al. 1997 Cell 88: 725–728; Barth et al. 1997 Curr. Opin. Cell Biol. 9: 683–690; and Nusse 1997 Cell 89: 321–323). […] Therefore, hOB-03-CE6 cells were plated and treated with PGE2 as described in Example 1, except that total cellular protein was extracted and a Western blot analysis for β-catenin was performed using a monoclonal antibody to the protein (Transduction Laboratories) as previously described (Bodine et al. 1996 Endocrinology 137: 4592–4604; Melkonyan et al. 1997 Proc. Natl. Acad. Sci. USA 94: 13636–13641). […] Both human and rat SFRP-1/FRP-1/SARP-2, as well as human Frzb-1/FrzB/Fritz, suppressed TCF-luciferase activity in the hOB cells.

Consider “5′-GCGCCCGATGCCCATGCC-3′ (phosphorothioate, further chemistry not given here) [antisense oligonucleotide to SARP-2, antisense initiation-site directed phosphorothioate oligonucleotide to human SARP-2]”, for which the “effect on the ability of PGE2 to accelerate the rate of hOB cell death” value in series [1] is on record as “reversed”.

In the case of “5′-GGCATGGGCATCGGGCGC-3′ (phosphorothioate, further chemistry not given here) [sense (control) oligonucleotide, sense (control) initiation-site directed phosphorothioate oligonucleotide to human SARP-2]”, the “effect on the ability of PGE2 to accelerate the rate of hOB cell death” value in series [1] is “no effect”. In the case of `CC1=C(/C=C/C(C)=C\C=C\C(C)=C\C(=O)O)C(C)(C)CCC1` [9-cis-retinoic acid], the “effect on hOB SFRP mRNA levels” value in series [2] is on record as “increases”. For `C[C@]12CC[C@@H]3c4ccc(O)cc4CC[C@H]3[C@@H]1CC[C@@H]2O` [17β-estradiol], in series [2], the “effect on hOB SFRP message expression” value is recorded as “suppresses”. `CC1=C(/C=C/C(C)=C/C=C/C(C)=C/C(=O)O)C(C)(C)CCC1` [all-trans-retinoic acid]: the “effect on hOB SFRP mRNA levels” value in series [2] is given as “increases”. In the case of `C[C@@H]1C[C@H]2[C@@H]3CCC4=CC(=O)C=C[C@]4(C)[C@@]3(F)[C@@H](O)C[C@]2(C)[C@@]1(O)C(=O)CO` [dexamethasone], in series [3] (34° C.), the “up-regulation of alkaline phosphatase activity” value is “approximately 2 fold”.

Take `C=C1CC[C@H](O)C/C1=C/C=C1\CCC[C@]2(C)[C@@H]([C@H](C)CCCC(C)C)CC[C@@H]12` [vitamin D3]: the osteocalcin secretion result in series [4] (34° C.) is “unable to induce”. Besides, the “up-regulation of osteocalcin production” value in series [4] (39° C.) is on record as 11 fold. In series [3] (cells incubated at 39° C.), the “enhancement of up-regulation of alkaline phosphatase activity at 39° C.” value is “about 4 fold”. Moreover, the “effect on hOB SFRP message expression” value in series [2] was “suppresses”. For the molecule “insulin-like growth factor (IGF)-I: insulin-like growth factor (IGF)-I”, in series [2], the “effect on hOB SFRP message expression” value was “suppresses”.

Take “interleukin (IL)-1β: interleukin (IL)-1β”: in series [2], the “effect on hOB SFRP mRNA levels” value is given as “increases”.

B1: human Frzb-1/FrzB/Fritz: human Frzb-1 expression plasmid transfected into hOB cells (protein)
chain: AACEPVRIPLCKSLPWNMTKMPNHLHHSTQANAILAIEQFEGLLGTHCSPDLLFFLCAMYAPICTIDFQHEPIKPCKSVCERARQGCEPILIKYRHSWPENLACEELPVYDRGVCISPEAIVTADGADFPMDSSNGNCRGASSERCKCKPIRATQKTYFRNNYNYVIRAKVKEIKTKCHDVTAVVEVKEILKSSLVNIPRDTVNLYTSSGCLCPPLNVNEEYIIMGYEDEERSRLLLVEGSIAEKWKDRLGKKVKRWDMKLRHLGLSKSDSSNSDSTQSQKSGRNSNPRQARN
On to B1, for which the TCF-luciferase activity entry in series [5] is recorded as “suppressed”.

For the origin of these results see patent publication US7098372B1, “Pharmaceutical compositions and methods of using secreted frizzled related protein” (Wyeth, priority 1999, dated 2006).
